Source: patent publication US20110212027A1, “RADIATIVE HEATING FOR DRUG DELIVERY AND OTHER APPLICATIONS” (priority 2008, published 2011)

Test: Release from reservoir devices submerged in PBS
Assay type: physicochemical
Conditions: physiologically-triggerable membrane
Experimental: The devices were constructed as follows. Two 1 cm diameter disks were punched out of a membrane sheet produced as described above. A 1 cm length of ⅜ inch OD (¼ inch ID) silicone tubing (currently used for catheters) was then cut and a membrane disk was glued to one side of the tube using a LockTite low viscosity quick drying adhesive. (1 inch=2.54 cm) After 30 minutes of drying (under light pressure), the membrane-backed tube was then filled with drug or indicator solution. Sodium fluorescein (100 mg/mL in saline) and bupivacaine (10 mg/mL in saline, as well as bupivacaine powder in a saturated saline solution with solid chunks of drug also added to give a larger drug reservoir for release) were tested. The top membrane was then attached using glue following the same technique as for the bottom membrane and set for 30 minutes under light pressure. […] For flux testing, the devices were submerged in 5 mL of PBS at a specific test temperature, with samples taken at predetermined intervals to track the release kinetics. For the microwave antenna devices, two 0.4 cm […] strips of aluminum foil were glued to the outside of the device, one at the top of the device and the other at the bottom of the device (with a 0.2 mm gap in the center) using the same adhesive.

release of bupivacaine from device into PBS (37° C.): below the minimal effective dose
release of bupivacaine from device into PBS (50° C.): above the minimal effective dose
SMILES: CCCCN1CCCCC1C(=O)Nc1c(C)cccc1C (centres unmarked) [bupivacaine]
